Where two headings read alike, the source gives them in different places.
Assays:
pHCVNeo17.m21 replicon = test: microbe, parasite or virus in culture; format: cell-based; conditions: Hepatitis C virus; replicon pHCVNeo17.m21: K@2039, S2404P; read-out: Cmpd Ib IC50
[1] = test system: HCV replicon in resistant clone 10AB3; test: microbe, parasite or virus in culture; format: cell-based; conditions: Hepatitis C virus, Cell-ELISA, read-out: IC50 Compound (Ib)
[2] = relative to concentrations effective on the replicon
NS5A protein = NS5A protein (Hepatitis C virus genotype 1b, UniProt Q9WMX2, INS2039K); format: cell-based; conditions: HBI10A cells, 2 μM compound (Ib), pulse-chase
pHCVNeo17.m36 replicon = test: microbe, parasite or virus in culture; format: cell-based; conditions: Hepatitis C virus; replicon pHCVNeo17.m36: K@2039, Y2065H; read-out: Cmpd Ib IC50
[3] = test system: HCV replicon in resistant clone 10AB11; test: microbe, parasite or virus in culture; format: cell-based; conditions: Hepatitis C virus, Cell-ELISA, read-out: IC50 Compound (Ib)
[4] = test system: HCV replicon in resistant clone 10AB2; test: microbe, parasite or virus in culture; format: cell-based; conditions: Hepatitis C virus, Cell-ELISA, read-out: IC50 Compound (Ib)
pHCVNeo17.m35 replicon = format: cell-based; conditions: replicon pHCVNeo17.m35: Y2065H
[5] = test system: non-adapted full length Con1 genomes; format: cell-based; conditions: lesser extent than with the corresponding replicons
[6] = test system: HCV replicons derived from the Con1 isolate in human HeLa cells; format: cell-based
pHCVNeo17.m50 replicon = test: microbe, parasite or virus in culture; format: cell-based; conditions: Hepatitis C virus; replicon pHCVNeo17.m50: K@2039, R2129W; read-out: Cmpd Ib IC50
pHCVNeo17.m30 replicon = format: cell-based; conditions: replicon pHCVNeo17.m30: H2057R
pHCVNeo17.wt replicon = format: cell-based; conditions: for Replicon Activation Yes/No: pHCVNeo17.wt replicon in 10AIFN cells, cultured 4 days, Cell-ELISA
pHCVNeo17.m5 replicon = test: microbe, parasite or virus in culture; format: cell-based; conditions: Hepatitis C virus; replicon pHCVNeo17.m5: K@2039; read-out: Cmpd Ib IC50
[7] = test system: HCV replicon in resistant clone 10AB7; test: microbe, parasite or virus in culture; format: cell-based; conditions: Hepatitis C virus, Cell-ELISA, read-out: IC50 Compound (Ib)
pBK-RMSI replicon = test: microbe, parasite or virus in culture; format: cell-based; conditions: Hepatitis C virus, 96 h; subgenomic pBK-RMSI, BK, R1496M + S2204I; 10AIFN cells, four days after transfection
cell proliferation = conditions: relative to concentrations effective on the replicon
[8] = test system: non-adapted replicons derived from the BK isolate of HCV; format: cell-based
[9] = test system: HCV replicons derived from the Con1 isolate in mouse hepatoma cell line Hepa1-6; format: cell-based
[10] = test system: HCV replicons in resistant cell clones; format: cell-based; conditions: fold increase of IC50
pHCVNeo17.RG replicon = test: microbe, parasite or virus in culture; format: cell-based; conditions: Hepatitis C virus, 96 h; subgenomic pHCVNeo17.RG, Con1, R2884G; 10AIFN cells, four days after transfection
pHCVNeo17.SI replicon = test: microbe, parasite or virus in culture; format: cell-based; conditions: Hepatitis C virus, 96 h; subgenomic pHCVNeo17.SI, Con1, S2204I; 10AIFN cells, four days after transfection
pHCVNeo17.m10 replicon = test: microbe, parasite or virus in culture; format: cell-based; conditions: pHCVNeo17.m10 replicon in 10AIFN cells, cultured 4 days, Cell-ELISA, read-out: Replicon Inhibition Range IC50
[11] = test system: HCV replicon in HBI10A cells; test: microbe, parasite or virus in culture; format: cell-based; conditions: Hepatitis C virus
[12] = test system: pFL.m10 genomic replicon (adapted full length HCV genome); format: cell-based, HCV isolate Con1
pHCVNeo17.m29 replicon = test: microbe, parasite or virus in culture; format: cell-based; conditions: Hepatitis C virus, read-out: Cmpd Ib IC50 (μM)

## CC(C)(C)OC(=O)N1CCN(c2ccc(C(=O)Nc3ccc(O)cc3)cc2)CC1 [Example 101, tert-butyl 4-(4-{[(4-hydroxyphenyl)amino]carbonyl}phenyl)piperazine-1-carboxylate]
pHCVNeo17.m21 replicon
  IC50: 38 nM
[1]
  IC50: > 2000 nM
[2]
  Toxicity, MTT cytotoxicity assay: only at concentrations two orders of magnitude higher than those effective on the replicon
NS5A protein
  Conversion of NS5A p56 into hyperphosphorylated p58: the rate and the extent of conversion of the p56 into p58 were reduced
pHCVNeo17.m36 replicon
  IC50: > 2000 nM
[3]
  IC50: > 2000 nM
[4]
  IC50: > 2000 nM
pHCVNeo17.m35 replicon
  Cmpd Ib IC50 (μM): No effect
[5]
  Stimulation of replication of non-adapted full length Con1 genomes: stimulated replication
[6]
  Inhibition of HCV replicons in HeLa cells: inhibited with comparable potencies
pHCVNeo17.m50 replicon
  IC50: > 2000 nM
pHCVNeo17.m30 replicon
  Cmpd Ib IC50 (μM): activation
pHCVNeo17.wt replicon
  Replicon Activation Yes/No: Yes
pHCVNeo17.wt replicon; replicon pHCVNeo17.Wt, no mutations
  Cmpd Ib IC50 (μM): ^bactivation
pHCVNeo17.m5 replicon
  IC50: 100 nM
[7]
  IC50: > 2000 nM
pBK-RMSI replicon
  IC50: 650 nM
Cell proliferation
  Inhibition of cell proliferation, 14C thymidine incorporation: only at concentrations two orders of magnitude higher than those effective on the replicon
[8]
  Activation of replication of non-adapted BK replicons: activated replication
[9]
  Inhibition of HCV replicons in Hepa1-6 cells: inhibited with comparable potencies
[10]
  IC50 in resistant cell clones relative to parental cells: at least ten times higher
pHCVNeo17.RG replicon
  IC50: < 50 nM
pHCVNeo17.SI replicon
  IC50: 100 nM
pHCVNeo17.m10 replicon; Hepatitis C virus, 96 h
  IC50: < 1000 nM
[11]; HBI10A replicon cells, read-out: IC50, dose-dependent inhibition of HCV replication
  IC50: 120 ± 60 nM
[11]; parental clone HBI10A, Cell-ELISA, read-out: IC50 Compound (Ib)
  IC50: 100 ± 50 nM
[12]
  Inhibition of replication of an adapted full length HCV genome: inhibited with comparable potency
pHCVNeo17.m29 replicon
  IC50: > 2 µM

## CC(C)(C)OC(=O)N1CCN(c2ccc(C(=O)Nc3cccc(Br)c3)cc2)CC1 [Example 103, tert-butyl 4-(4-{[(3-bromophenyl)amino]carbonyl}phenyl)piperazine-1-carboxylate]
pHCVNeo17.wt replicon
  Replicon Activation Yes/No: No
pHCVNeo17.m10 replicon; Hepatitis C virus, 96 h
  IC50: < 1000 nM

## CC(=O)c1cccc(NC(=O)c2ccc(N3CCN(C(=O)OC(C)(C)C)CC3)cc2)c1 [Example 108, tert-butyl 4-(4-{[(3-acetylphenyl)amino]carbonyl}phenyl)piperazine-1-carboxylate]
pHCVNeo17.wt replicon
  Replicon Activation Yes/No: No
pHCVNeo17.m10 replicon; Hepatitis C virus, 96 h
  IC50: > 1000 nM

## CC(C)(C)OC(=O)N1CCN(c2ccc(C(=O)Nc3ccc(C(=O)c4ccccc4)cc3)cc2)CC1 [Example 112, tert-butyl 4-(4-{[(4-benzoylphenyl)amino]carbonyl}phenyl)piperazine-1-carboxylate]
pHCVNeo17.wt replicon
  Replicon Activation Yes/No: No
pHCVNeo17.m10 replicon; Hepatitis C virus, 96 h
  IC50: < 1000 nM

## C=Cc1ccc(NC(=O)c2ccc(N3CCN(C(=O)OC(C)(C)C)CC3)cc2)cc1 [Example 115, tert-butyl 4-(4-{[(4-vinylphenyl)amino]carbonyl}phenyl)piperazine-1-carboxylate]
pHCVNeo17.wt replicon
  Replicon Activation Yes/No: No
pHCVNeo17.m10 replicon; Hepatitis C virus, 96 h
  IC50: > 1000 nM

## CC(C)(C)OC(=O)N1CCN(c2ccc(C(=O)Nc3ccc(/C=C/c4ccc(O)cc4)cc3)cc2)CC1 [Example 116, tert-butyl 4-{4-[({4-[(E)-2-(4-hydroxyphenyl)vinyl]phenyl}amino)carbonyl]phenyl}piperazine-1-carboxylate]
pHCVNeo17.wt replicon
  Replicon Activation Yes/No: No
pHCVNeo17.m10 replicon; Hepatitis C virus, 96 h
  IC50: < 1000 nM

## CC(=O)Oc1ccc(NC(=O)c2ccc(N3CCN(C(=O)OC(C)(C)C)CC3)cc2)cc1 [Example 123, tert-butyl 4-[4-({[4-(acetyloxy)phenyl]amino}carbonyl)phenyl]piperazine-1-carboxylate]
pHCVNeo17.wt replicon
  Replicon Activation Yes/No: Yes
pHCVNeo17.m10 replicon; Hepatitis C virus, 96 h
  IC50: < 1000 nM

## CC(C)COC(=O)N1CCN(c2ccc(C(=O)Nc3ccc(O)cc3)cc2)CC1 [Example 201, isobutyl 4-(4-{[(4-hydroxyphenyl)amino]carbonyl}phenyl)piperazine-1-carboxylate]
pHCVNeo17.wt replicon
  Replicon Activation Yes/No: No
pHCVNeo17.m10 replicon; Hepatitis C virus, 96 h
  IC50: > 1000 nM

## O=C(Nc1ccc(O)cc1)c1ccc(N2CCN(C(=O)OCc3ccccc3)CC2)cc1 [Example 216, benzyl 4-(4-{[(4-hydroxyphenyl)amino]carbonyl}phenyl)piperazine-1-carboxylate]
pHCVNeo17.wt replicon
  Replicon Activation Yes/No: Yes
pHCVNeo17.m10 replicon; Hepatitis C virus, 96 h
  IC50: < 1000 nM

## CC(C)(C)NC(=O)N1CCN(c2ccc(C(=O)Nc3ccc(O)cc3)cc2)CC1 [Example 302, N-(tert-butyl)-4-(4-{[(4-hydroxyphenyl)amino]carbonyl}phenyl)piperazine-1-carboxamide]
pHCVNeo17.wt replicon
  Replicon Activation Yes/No: Yes
pHCVNeo17.m10 replicon; Hepatitis C virus, 96 h
  IC50: < 1000 nM

## COc1ccc(CNC(=O)N2CCN(c3ccc(C(=O)Nc4ccc(O)cc4)cc3)CC2)cc1 [Example 303, 4-(4-{[(4-hydroxyphenyl)amino]carbonyl}phenyl)-N-(4-methoxybenzyl)piperazine-1-carboxamide]
pHCVNeo17.wt replicon
  Replicon Activation Yes/No: Yes
pHCVNeo17.m10 replicon; Hepatitis C virus, 96 h
  IC50: < 1000 nM

## C[C@@H](NC(=O)N1CCN(c2ccc(C(=O)Nc3ccc(O)cc3)cc2)CC1)c1ccccc1 [Example 306, 4-(4-{[(4-hydroxyphenyl)amino]carbonyl}phenyl)-N-[(1R)-1-phenylethyl] piperazine-1-carboxamide]
pHCVNeo17.wt replicon
  Replicon Activation Yes/No: No
pHCVNeo17.m10 replicon
  IC50: < 1000 nM

## O=C(Nc1ccc(O)cc1)c1ccc(N2CCN(C(=O)C3CCCCC3)CC2)cc1 [Example 401, 4-[4-(cyclohexylcarbonyl)piperazin-1-yl]-N-(4-hydroxyphenyl)benzamide]
pHCVNeo17.wt replicon
  Replicon Activation Yes/No: No
pHCVNeo17.m10 replicon; Hepatitis C virus, 96 h
  IC50: < 1000 nM

## CC(C)(C)C(=O)N1CCN(c2ccc(C(=O)Nc3ccc(O)cc3)cc2)CC1 [Example 403, 4-[4-(2,2-dimethylpropanoyl)piperazin-1-yl]-N-(4-hydroxyphenyl)benzamide]
pHCVNeo17.wt replicon
  Replicon Activation Yes/No: No
pHCVNeo17.m10 replicon; Hepatitis C virus, 96 h
  IC50: < 1000 nM

## O=C(Nc1ccc(O)cc1)c1ccc(N2CCN(S(=O)(=O)/C=C/c3ccccc3)CC2)cc1 [Example 503, N-(4-hydroxyphenyl)-4-(4-{[(E)-2-phenylvinyl]sulfonyl}piperazin-1-yl)benzamide]
pHCVNeo17.wt replicon
  Replicon Activation Yes/No: No
pHCVNeo17.m10 replicon; Hepatitis C virus, 96 h
  IC50: > 1000 nM

## CC(C)(C)OC(=O)N1CCC(c2ccc(C(=O)Nc3ccc(O)cc3)cc2)CC1 [Example 602, tert-butyl 4-(4-{[(4-hydroxyphenyl)amino]carbonyl}phenyl)piperidine-1-carboxylate]
pHCVNeo17.wt replicon
  Replicon Activation Yes/No: No
pHCVNeo17.m10 replicon; Hepatitis C virus, 96 h
  IC50: > 1000 nM

## CC(C)(C)OC(=O)N1CCN(c2ccc(NC(=O)c3ccc(O)cc3)cc2)CC1 [Example 603, tert-butyl 4-{4-[(4-hydroxybenzoyl)amino]phenyl}piperazine-1-carboxylate]
pHCVNeo17.wt replicon
  Replicon Activation Yes/No: No
pHCVNeo17.m10 replicon; Hepatitis C virus, 96 h
  IC50: > 1000 nM

— US8012982B2, “Modulators of HCV replication” (priority 2004, dated 2011)
